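Growth conditions: 96-well plates. Treatment: test compound, 48 hours, 5 concentrations. Analysis: linear interpolation between bracketing concentrations; unreached endpoints set to highest concentration. GI50: concentration for 50% inhibition of growth. TGI marks complete inhibition of growth.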
Legend:
Assay in all cases: DTP human tumour cell line panel, 48 h
786-0 renal = tested on: 786-0 renal
KM12 colon = tested on: KM12 colon
MDA-N = tested on: MDA-N
NCI-H522 lung = tested on: NCI-H522 lung
OVCAR-5 ovarian = tested on: OVCAR-5 ovarian

Row | SMILES | TGI (786-0 renal) [µM] | TGI (KM12 colon) [µM] | TGI (MDA-N) [µM] | TGI (NCI-H522 lung) [µM] | TGI (OVCAR-5 ovarian) [µM] | GI50 (KM12 colon) [µM] | GI50 (OVCAR-5 ovarian) [µM]
1 | O=C(O)c1c(CC(Cc2ccc3c(c2)CCCC3)C(=O)O)ccc2c1CCCC2 (centres undefined) | > 100 | > 100 | > 100 | > 100 | > 100 | – | –
2 | COc1cccc(NCC(=O)Nn2c(-c3ccccc3)nc3ccccc3c2=O)c1 | > 100 | > 100 | – | > 100 | > 100 | – | –
3 | Oc1cc(Cl)cc2cc(Br)cnc12 | > 100 | > 100 | > 100 | > 69.9 | > 100 | – | –
4 | N#Cc1c(=O)c2cc([N+](=O)[O-])ccc2n2c1[nH]c1ccccc12 | > 100 | > 57.2 | > 77.4 | 5.75 | > 100 | – | –
5 | OC1C(O)C(O)C(O)C(O)C1O (centres undefined) | > 1000 | – | – | – | > 1000 | – | –
6 | O=c1c2cc(Br)ccc2oc2nc3n(c(=O)c12)CCCS3 | > 100 | > 100 | > 100 | > 100 | > 100 | – | –
7 | OC(c1cccs1)c1cc2ccccc2s1 (centres undefined) | > 10 | > 10 | > 10 | > 10 | > 10 | – | –
8 | CC(C)CCCC(C)[C@H]1CC[C@H]2[C@@H]3CC[C@H]4C[C@@H](CCC=C(c5cc(Cl)c(O)c(C(=O)OC(C)(C)C)c5)c5cc(Cl)c(O)c(C(=O)OC(C)(C)C)c5)CC[C@]4(C)[C@H]3CC[C@]12C (some centres undefined) | > 50 | > 50 | > 50 | – | > 50 | – | –
9 | Clc1ccc(OCc2nnc3sc(-c4ccc(-c5ccc(Cl)cc5Cl)o4)nn23)c(Cl)c1 | 26.1 | > 100 | 71.3 | 34.6 | 49.1 | – | –
10 | CC(C)(C)c1cc(-c2ccc(-c3cc(C(C)(C)C)c(O)c(C(C)(C)C)c3)cc2)cc(C(C)(C)C)c1O | > 100 | > 100 | > 100 | > 100 | > 100 | – | –
11 | C=C1CC/C=C(/C(=O)O)CC[C@H]2[C@@H]1CC2(C)C | > 100 | > 100 | > 100 | > 100 | > 100 | – | –
12 | OCCCSc1ccccc1SCCCO | > 100 | > 100 | > 100 | > 100 | > 100 | – | –
13 | O=S(=O)(O)CCS | > 100 | > 100 | > 100 | > 100 | > 100 | – | –
14 | OCCSCCCSCCO | > 100 | > 100 | > 100 | > 100 | > 100 | – | –
15 | Oc1ccc2c(c1)OCC(O)(c1ccccc1O)C2 (centres undefined) | > 100 | > 100 | > 100 | – | > 100 | – | –
16 | Oc1ccc(-c2nc3cc(C(F)(F)F)ccc3n2CC2CCCN3CCCCC23)cc1 (centres undefined) | 30.7 | 29.3 | 29.7 | 29 | 67 | – | –
17 | COc1ccc(C(=O)N2CCN(c3ccc4c(c3)OCC(=O)N4)CC2)cc1 | > 100 | > 100 | > 100 | > 100 | > 100 | – | –
18 | COC1=CC(=O)C(O)=C(C[C@@]2(C)[C@@H]3CCC[C@H](COC(=O)CCCCCNC(=O)OC(C)(C)C)[C@@]3(C)CC[C@@H]2C)C1=O | > 10 | > 10 | > 10 | > 10 | > 10 | – | –
19 | CCOC(=O)c1c(C)n(Cc2ccccc2)c2c1cc(O)c1[nH]c3c(c12)CCCC3 | 30.2 | 13.2 | 28.2 | 2.58 | 20.1 | – | –
20 | C#CC(O)/C=C/CCCCCCC#CC/C=C\CC#CCCCCCC/C=C/C(O)C#C (centres undefined) | 5.23 | 5.29 | 7.52 | – | 7.86 | – | –
21 | COC(=O)C1OC(O[C@H]2CC[C@]3(C)[C@H]4CC=C5[C@@H]6CC(C)(C)CC[C@]6(C(=O)OC)[C@H](O)C[C@@]5(C)[C@]4(C)CC[C@H]3C2(C)C)C(O)C(O)C1O (some centres undefined) | 20.9 | 4.21 | 24.9 | 3.06 | 26 | – | –
22 | COc1ccc(CNc2nc(NCc3ccc(OC)cc3)nc(Nc3ccccc3)n2)cc1 | > 100 | 35.3 | – | > 100 | > 100 | – | –
23 | CCCCCCOc1ccc(NC2=C(Cl)C(=O)c3cccnc3C2=O)cc1 | 2.8 | 2.97 | 3.18 | – | 5.01 | – | –
24 | CC(C)(C)NC(NC(C)(C)C)=C(C(Cl)=C(Cl)Cl)[N+](=O)[O-] | > 100 | > 100 | > 100 | – | > 100 | – | –
25 | Cn1c(C(C#N)c2cc(Cl)ncn2)nc2ccccc21 (centres undefined) | > 100 | > 100 | > 100 | > 100 | > 100 | – | –
26 | CC(=O)Oc1ccn2nc(C)c(Br)c2c1Br | > 100 | > 100 | 32.6 | 36.8 | – | – | –

Row | SMILES | TGI (786-0 renal) [µM] | TGI (KM12 colon) [µM] | TGI (MDA-N) [µM] | TGI (NCI-H522 lung) [µM] | TGI (OVCAR-5 ovarian) [µM] | GI50 (KM12 colon) [µM] | GI50 (OVCAR-5 ovarian) [µM]
27 | C/C(Cl)=N\OC(=O)Nc1ccccc1C(F)(F)F | 38.6 | > 100 | 31.7 | – | > 100 | – | –
28 | Cc1ccc(C(=O)CC(Cl)=C(Cl)Cl)cc1 | > 100 | > 100 | – | > 100 | > 100 | – | –
29 | COC(=O)NCCc1[nH]nc2c1C(=O)C=C(OC)C2=O | 36.2 | 41.3 | 33.3 | 44.3 | 37.8 | – | –
30 | Cc1ccc(/C=C2\NC(=S)N(CN3CCOCC3)C2=O)cc1 | > 100 | > 100 | > 100 | – | > 100 | – | –
31 | COc1nn(Cc2ccccc2F)c2ccc([N+](=O)[O-])cc12 | > 100 | > 100 | > 100 | > 100 | > 100 | – | –
32 | Cc1cccc2sc(NC(=O)c3cc([N+](=O)[O-])ccc3Cl)nc12 | 4.67 | 12.1 | 3.69 | 4.1 | 28.4 | – | –
33 | Cn1c(-c2csc(-c3ccc(Cl)cc3)n2)n[nH]c1=S | 32.2 | > 100 | > 100 | 41 | > 100 | – | –
34 | COC(=O)C(NC(=O)CNC(=O)CSc1nnc(COc2ccc(Cl)cc2)n1-c1ccccc1)C(C)C (centres undefined) | 32.5 | 35.4 | 51.2 | 19.3 | 40.1 | – | –
35 | CCCCCCCCCCCCCCCCCCNc1ccn(C2OC(COP(=O)(O)O)C(O)C2O)c(=O)n1 (centres undefined) | > 100 | > 100 | – | > 100 | > 100 | – | –
36 | Cc1cc2c(cc1O)CC[C@@H]1[C@@H]2CC[C@]2(C)[C@@H](O)CC[C@@H]12 | 30.9 | 15.7 | 4.39 | 23.4 | 71.9 | – | –
37 | C=C1C(=O)OC2/C=C(\C)C(O)CC(O)C(C)(O)CC(OC(=O)/C(C)=C/C)C12 (centres undefined) | > 100 | > 75.8 | > 100 | > 100 | > 100 | – | –
38 | O=C(O)c1c(-c2c3ccc(=O)cc-3oc3cc(O)ccc23)cc2ccccc2c1-c1ccccc1 | > 100 | > 100 | > 100 | > 100 | > 100 | – | –
39 | O=[N+]([O-])c1ccc(Cl)cc1C1ON=C(c2ccccc2)N1C12CC3CC(CC(C3)C1)C2 (centres undefined) | > 100 | – | > 100 | > 100 | > 100 | – | –
40 | N[C@@H]1c2c(Br)sc(Br)c2[C@H](O)[C@@H]1O | > 100 | > 100 | > 100 | > 100 | > 100 | – | –
41 | O=[N+]([O-])CC(SCc1ccccc1)c1ccc2c(c1)OCO2 (centres undefined) | 3.42 | 19.1 | 9.63 | 28.3 | 30.2 | – | –
42 | CN1CCN(CC(=O)Nc2ccc3ncnc(Nc4ccc(Oc5cccc(C(F)(F)F)c5)c(Cl)c4)c3c2)CC1 | – | 3.3 | – | – | 2.98 | 1.79 | 1.58
43 | O=C1CC(Br)c2c(Cl)sc(Cl)c21 (centres undefined) | 8.91 | 20.2 | 12.2 | 37.3 | 36.3 | – | –
44 | COC(=O)C1=NN2c3ccccc3C(=O)OCCC2C1 (centres undefined) | > 100 | > 100 | > 100 | > 100 | > 100 | – | –
45 | Cc1ccc(S(=O)(=O)N2CCSCCSCCN(S(=O)(=O)c3ccc(C)cc3)CCN(S(=O)(=O)c3ccc(C)cc3)CC2)cc1 | > 100 | > 100 | > 100 | > 100 | > 100 | – | –
46 | C=C(C)CCC1CCCCC(CN(C)C)C1=O (centres undefined) | > 100 | > 100 | > 100 | 27.2 | > 100 | – | –
47 | c1ccc2nc3[nH]c4ccccc4c3cc2c1 | 1.16 | 1.81 | 2 | 1.52 | 20.4 | – | –
48 | CC1=C(C(=O)OCCO[N+](=O)[O-])C(c2ccccc2C(F)(F)F)C(C(=O)OC(C)C)=C(C)N1 (centres undefined) | 36.6 | 21.8 | – | 44.4 | 37.3 | – | –
49 | CC1(C)OCC2OC3([C@H](O)CCO)OC(C)(C)OC3C2O1 (some centres undefined) | > 100 | > 100 | > 100 | – | > 100 | – | –
50 | NC(=O)c1n[nH]n(-c2ccccc2)c1=O | > 100 | > 100 | – | > 100 | > 100 | – | –
51 | COC1(OC)N=C(N)C2(C#N)C(C)CC(=O)N(N(C)C)C12C#N (centres undefined) | > 100 | > 100 | – | > 100 | > 100 | – | –

— PubChem BioAssay (NCI)
